Measurements from patent US20080139581A1 (priority 2005, published 2008).

melting point: 202 to 203 °C
Structure (SMILES): CCCCCCCCc1c(CC)nc2nc(Cl)nn2c1N
